Reference: patent publication US20250188110A1, “SPECIFIC SMALL MOLECULE INHIBITORS THAT BLOCK KMT9 METHYLTRANSFERASE ACTIVITY AND FUNCTION” (ALBERT-LUDWIGS-UNIVERSITÄT FREIBURG, priority 2021, published 2025)

Tests used:
[1] = molecular target: T1, KMT9 (Homo sapiens, UniProt Q9Y5N5); assay: Microscale thermophoresis (MST) KMT9 binding; details: microscale thermophoresis, His-tag labelled KMT9 (20 nM); read-out: MST
T1 sequence (Q9Y5N5 1-214): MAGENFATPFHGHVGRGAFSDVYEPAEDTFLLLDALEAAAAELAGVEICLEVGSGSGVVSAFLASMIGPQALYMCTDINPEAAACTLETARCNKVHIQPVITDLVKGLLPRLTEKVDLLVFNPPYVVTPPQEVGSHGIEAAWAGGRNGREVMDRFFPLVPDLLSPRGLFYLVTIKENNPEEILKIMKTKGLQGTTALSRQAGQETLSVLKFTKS
T1 sequence (Q9UI30 1-120 isoform Q9UI30-2 partner): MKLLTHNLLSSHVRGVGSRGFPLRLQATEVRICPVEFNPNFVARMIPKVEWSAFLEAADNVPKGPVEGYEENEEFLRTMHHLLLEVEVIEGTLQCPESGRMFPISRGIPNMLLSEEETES
Procedure, shortened: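 His-tagged KMT9 (20 nM), RED-Tris-NTA labelled, titrated with varying compound concentrations in 25 mM HEPES pH 7.5, 100 mM NaCl, 1 mM DTT, 0.05% Tween. MST at 40% MST and 100% LED power, Nano-RED excitation; Kd binned A ≤10 nM, B 10–100, C 100–1000, D >1000 nM.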

[2] = molecular target: T1, KMT9; assay: KMT9 thermal shift assay (SyproOrange); type: binding; details: ΔTm; 500 µM compound, 2 μM KMT9, 5X SO; read-out: Thermal shift
Procedure, shortened: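 Recombinant KMT9 was incubated with compound and SyproOrange at 25° C in 50 mM BTP pH 8.5, 1 mM MgCl2, 1 mM DTT. It was then heated from 20° C to 95° C at 1° C per 15 s with fluorescence read each step. Tm came from a Boltzmann sigmoidal fit; ΔTm relative to DMSO control, binned in 5 K ranges.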

[3] = molecular target: T1, KMT9; assay: KMT9 methyltransferase inhibition assay, 3H-SAM scintillation (entries 1-154); type: biochemical; details: entries 1-154: 3H-SAM assay, 25 nM KMT9, 5 μM ETF1
Procedure, shortened: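 Final 25 nM KMT9, 5 μM ETF1 (residues 140-275), 0.3 μM 3H-SAM plus 0.7 μM SAM in pH 8.5 BTP buffer, 2 h at 30° C. TCA-quenched, filter-washed, methylation counted by scintillation; % inhibition vs DMSO and no-enzyme controls, IC50 from four-parameter fit.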

Row | Structure (SMILES) | Kd [1] [µM] | ΔTm at 500 µM [2] [°C] | IC50 [3] [µM]
1 | CNc1ncnc2c1ccn2[C@@H]1C[C@H](CN(CCCNCCc2cccc(Oc3ccccc3)c2)C(C)C)[C@@H](O)[C@H]1O [362 (266), (1S,2R,3R,5R)-3-((isopropyl(3-((3-phenoxyphenethyl)amino)propyl)amino)methyl)-5-(4-(methylamino)-7H-pyrrolo[2,3-d]pyrimidin-7-yl) cyclopentane-1,2-diol] | 0.1 to 1 | 10 to 15 | 1 to 10
2 | CCN(CCCNCCc1cccc(Oc2ccccc2)c1)C[C@H]1C[C@@H](n2ccc3c(NC)ncnc32)[C@H](O)[C@@H]1O [364 (268), (1S,2R,3R,5R)-3-((ethyl(3-((3-phenoxyphenethyl)amino)propyl)amino)methyl)-5-(4-(methylamino)-7H-pyrrolo[2,3-d]pyrimidin-7-yl) cyclopentane-1,2-diol] | 0.1 to 1 | 10 to 15 | 1 to 10
3 | CNc1ncnc2c1ccn2[C@@H]1C[C@H](CNCCCNCCc2ccc(Oc3ccc(Cl)cc3)c(F)c2)[C@@H](O)[C@H]1O [370 (274), (1S,2R,3R,5R)-3-(((3-((4-(4-chlorophenoxy)-3-fluorophenethyl)amino)propyl)amino)methyl)-5-(4-(methylamino)-7H-pyrrolo[2,3-a]pyrimidin-7-yl) cyclopentane-1,2-diol] | > 1 | 10 to 15 | 1 to 10
4 | CCN(CCCNCCc1ccc2ccccc2c1)C[C@H]1C[C@@H](n2ccc3c(NC)ncnc32)[C@H](O)[C@@H]1O [375 (279), (1S,2R,3R,5R)-3-((ethyl(3-((2-(naphthalen-2-yl)ethyl)amino)propyl)amino)methyl)-5-(4-(methylamino)-7H-pyrrolo[2,3-d]pyrimidin-7-yl) cyclopentane-1,2-diol] | 0.1 to 1 | 10 to 15 | > 10
5 | CNc1ncnc2c1ccn2[C@@H]1C[C@H](CN(CCCNCCc2ccc3ccccc3c2)CC(F)(F)F)[C@@H](O)[C@H]1O [377 (281), (1R,2S,3R,5R)-3-(4-(methylamino)-7H-pyrrolo[2,3-d]pyrimidin-7-yl)-5-(((3-((2-(naphthalen-2-yl)ethyl)amino)propyl)(2,2,2-trifluoroethyl)amino)methyl) cyclopentane-1,2-diol] | > 1 | ≤ 10 | > 10

More lines, now with the values ahead:

Row | Kd [1] [µM] | ΔTm at 500 µM [2] [°C] | IC50 [3] [µM] | Structure (SMILES)
6 | 0.1 to 1 | ≤ 10 | > 10 | CNc1ncnc2c1ccn2[C@@H]1C[C@H](CN(CCCNCCc2cccc(Oc3ccccc3)c2)CC2CC2)[C@@H](O)[C@H]1O [360 (270)]
7 | > 1 | ≤ 10 | > 10 | CNc1ncnc2c1ccn2[C@@H]1C[C@H](CN(CCCNCCc2cccc(Oc3ccccc3)c2)NC)[C@@H](O)[C@H]1O [367 (271), (1S,2R,3R,5R)-3-((2-methyl-1-(3-((3-phenoxyphenethyl)amino)propyl) hydrazineyl)methyl)-5-(4-(methylamino)-7H-pyrrolo[2,3-d]pyrimidin-7-yl) cyclopentane-1,2-diol]
8 | > 1 | 10 to 15 | > 10 | CNc1ncnc2c1ccn2[C@@H]1C[C@H](CNCCCNCCc2ccc3ccccc3c2)[C@@H](O)[C@H]1O [368 (272), (1R,2S,3R,5R)-3-(4-(methylamino)-7H-pyrrolo[2,3-a]pyrimidin-7-yl)-5-(((3-((2-(naphthalen-2-yl)ethyl)amino)propyl)amino)methyl) cyclopentane-1,2-diol]
9 | 0.1 to 1 | 10 to 15 | 1 to 10 | CNc1ncnc2c1ccn2[C@@H]1C[C@H](CNCCCNCCc2cccc(Sc3ccccc3)c2)[C@@H](O)[C@H]1O [372 (276), (1R,2S,3R,5R)-3-(4-(methylamino)-7H-pyrrolo[2,3-a]pyrimidin-7-yl)-5-(((3-((3-(phenylthio)phenethyl)amino)propyl)amino)methyl) cyclopentane-1,2-diol]
